Tests used:
[1] = molecular target: T1, Polyunsaturated fatty acid 5-lipoxygenase (Rattus norvegicus) (UniProt P12527); assay: In vitro percent inhibition against 5-lipoxygenase in RBL-1 cells at 10 uM concentration; format: cell-based
T1 sequence (whole entry): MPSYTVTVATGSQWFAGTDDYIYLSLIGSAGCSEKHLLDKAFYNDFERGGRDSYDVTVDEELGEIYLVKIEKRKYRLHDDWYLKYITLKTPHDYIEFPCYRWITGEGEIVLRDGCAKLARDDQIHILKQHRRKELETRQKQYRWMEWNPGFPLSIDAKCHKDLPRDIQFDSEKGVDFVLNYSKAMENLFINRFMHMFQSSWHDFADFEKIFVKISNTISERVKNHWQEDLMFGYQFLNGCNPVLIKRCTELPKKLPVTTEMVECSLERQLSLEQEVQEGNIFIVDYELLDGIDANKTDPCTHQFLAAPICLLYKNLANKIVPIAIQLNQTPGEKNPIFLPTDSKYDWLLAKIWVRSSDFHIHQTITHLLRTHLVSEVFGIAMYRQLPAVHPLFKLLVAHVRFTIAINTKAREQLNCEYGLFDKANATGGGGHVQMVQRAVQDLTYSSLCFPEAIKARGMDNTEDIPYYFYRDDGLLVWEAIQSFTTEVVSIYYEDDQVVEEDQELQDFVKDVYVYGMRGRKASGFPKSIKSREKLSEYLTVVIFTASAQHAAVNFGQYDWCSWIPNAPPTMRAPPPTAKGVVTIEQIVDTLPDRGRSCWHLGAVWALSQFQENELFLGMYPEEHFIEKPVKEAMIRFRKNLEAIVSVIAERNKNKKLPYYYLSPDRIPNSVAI

[2] = molecular target: T1, Polyunsaturated fatty acid 5-lipoxygenase (Rattus norvegicus); details: RBL-1; 10 uM
[3] = molecular target: T2, Polyunsaturated fatty acid 5-lipoxygenase (Rattus norvegicus, UniProt P12527); assay: In vitro inhibitory concentration against 5-lipoxygenase in RBL-1 cells; format: cell-based
T2 sequence (P12527 whole entry): T1 sequence (whole entry)

[4] = molecular target: T1, Polyunsaturated fatty acid 5-lipoxygenase (Rattus norvegicus); assay: In vitro percent inhibition against 5-lipoxygenase in RBL-1 cells at 1 uM concentration; format: cell-based

Row | SMILES | inhibition [1] [%] | also measured
1 | CN(NS(=O)(=O)c1ccccc1)c1ccccc1 | 53 | 
2 | O=C(NN1CCc2ccccc21)c1ccccc1 | 15 | 
3 | CC(Cc1ccc(O)c(O)c1)C(C)Cc1ccc(O)c(O)c1 (centres undefined) |  | inhibition [2]: 73%
4 | O=C(NN1CCc2cc(O)ccc21)c1ccccc1 | 80 | IC50 [3]: 3.47 µM
5 | CN(NC(=O)c1ccccc1)c1ccccc1 | 28 | 
6 | CCCCCCCCCCNC(=O)CCC/C=C/c1ccc(C(=O)NN2CCc3ccccc32)cc1 |  | inhibition [4]: 57%
7 | COc1ccc2c(c1)CCN2NC(=O)c1ccccc1 | 20 | 
8 | O=C(O)CCC/C=C/c1ccc(C(=O)NN2CCc3ccccc32)cc1 | 18 | 

From ChEMBL document CHEMBL1134002, “N-Aminoindoline derivatives as inhibitors of 5-lipoxygenase” (Bioorg Med Chem Lett, 2001)
